Series [1] can be described thus: Stability test of compound (2) (physical properties). The format is physicochemical. Particulars: for physical properties when stored under a condition of 30° C.: storage time not given.
The nature of series [2]: Stability test of compound (2) (powder X-ray diffraction). The format is physicochemical. Particulars: sealed in a brown bottle, stored at 25° C. for 2 weeks and 4 weeks. On the procedure: A filling section of a plate sample holder made of glass was filled with a sample, and powder x-ray diffraction of the sample was then measured using RINT2200 powder x-ray diffractometer manufactured by Rigaku Corporation.
Tube current: 36 mA Tube voltage: 40 kV Scanning rate: 2°/min wavelength: 1.5405 Å (Kα1), 1.5443 Å (Kα2), 1.3922 Å (Kβ1) Divergence slit: 1° Receiving slit: 0.15 mm Scattering slit: 1° Anticathode: copper Scanning range: 5 to 40°
The wet crystal of the compound (2) (Example 1) and the dried product (Reference Example 1) were each sealed in a brown bottle, and stored at 25° C. for 2 weeks and 4 weeks. After the storage, the powder x-ray diffraction of each sample was measured in accordance with the method of Test Example 1.

The record followed here is patent US20130317214A1, “METHOD FOR PRODUCING MALEATE USING WET CRYSTAL” (KYORIN PHARMACEUTICAL CO., LTD., priority 2010, published 2013).

For the compound `CCc1cc(OC)cc2nc(-c3cccnc3N3CC[C@H](N(C)C)C3)oc(=O)c12` [dried product of the compound (2)], the “physical properties on 3 days after the storage at 30° C.” value in series [1] (sealed in a brown bottle, 3 days) was “changed into a glassy mass”. The “physical properties when stored under a condition of 30° C.” value in series [1] is reported as “changed into a glassy solid”. For the same compound, the “crystal state by powder x-ray diffraction after storage” value in series [2] is “complete amorphous form”.

`CCc1cc(OC)cc2nc(-c3cccnc3N3CC[C@H](N(C)C)C3)oc(=O)c12` [wet crystal of the compound (2)]: the “physical properties when stored under a condition of 30° C.” value in series [1] is “the state of white powder was maintained”. Further, in series [2], the “crystal state by powder x-ray diffraction after storage” value was “change in the crystal state of the wet crystal of the compound (2) was not observed”.
